“Also recorded” adds a separate entry of the source.

The target in one data set is T1, ShHTL7 (Striga hermonthica, UniProt A0A0M3PNA2).
T1 sequence (A0A0M3PNA2 1-271): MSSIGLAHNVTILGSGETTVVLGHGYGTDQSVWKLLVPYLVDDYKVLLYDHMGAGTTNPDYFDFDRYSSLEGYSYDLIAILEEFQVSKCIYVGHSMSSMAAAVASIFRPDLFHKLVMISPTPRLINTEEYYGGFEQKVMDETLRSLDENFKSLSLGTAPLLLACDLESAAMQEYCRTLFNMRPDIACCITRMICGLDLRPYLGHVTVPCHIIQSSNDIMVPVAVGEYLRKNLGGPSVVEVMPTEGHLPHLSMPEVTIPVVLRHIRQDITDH
Put plainly: In vitro hydrolysis assay with ShHTL7 (HPLC). Format: biochemical. Conditions: 10 μM substrate, 37° C.

The subject of the next data set is S. hermonthica seeds. The data set is described as follows: Striga hermonthica seed germination bioassay. Type of data set: in vivo. Conditions: for Relative activity in inducing S. hermonthica seed germination: comparison between compounds. Here is the method:
Parasitic weed seeds (S. hermonthica and P. ramosa) germination activity was recorded as described previously (Jamil et al., 2012). Six pre-conditioned seed discs were placed in a 90 mm petri-dish containing a filter paper ring wetted with 0.9 ml sterile MilliQ water. […] GR24 solutions with equal concentrations and sterile MilliQ water were included as a positive and negative control, respectively. After application, seeds were incubated at 30° C./25° C. in the dark for two days. Germination (seeds with radical emerging through seed coat) was scored under a binocular microscope, and germination rate (%) was calculated. Statistical analyses were carried out using statistical software package R (version 3.2.2). Dose-response curves and Half Maximum Effective Concentrations (EC50) were calculated to determine optimum amount of MPs. Synthetic strigolactone analog GR24 was used as reference to estimate efficacy of selected compounds. EC50 and estimated response were calculated using drc package (https://cran.r390 project.org/web/packages/drc/) with a Four Parameter Logistic Curve (Dose Response Curve) (Ritz and Streibig, 2005).

In the next data set the test system is Arabidopsis seedlings. Put plainly: Arabidopsis lateral root density and primary root length. Particulars: 1.0 μM, 8 days old seedlings. Format: in vivo. Here is the method:
Sterilized Arabidopsis seeds were sown on half strength MS (with 0.5% sucrose+1% agar, 0.5 g L^−1 MES, pH 5.7) plates supplemented with GR24 or MPs (at 1.0 μM). Plates were stored at 4° C. in darkness for 3 days and then vertically grown at 22° C. in Percival incubator under long day condition (16 h at 22° C./8 h at 16° C. day/night, 60% relative humidity, 4000-5000 LUX white light) for 8 days. For determining the effect on lateral root density and primary root length, at least 30 seedlings were measured using publically available ImageJ software (http://rsbweb.nih.gov/ij/) after scanning roots.

Data set [1] in a line: Chemical stability of MPs in aqueous solution, monitored by HPLC. Type of data set: physicochemical. Conditions: aqueous solution pH 6.8, 21° C., monitored at 24 h intervals up to 3 weeks. Here is the method: Aqueous solutions of MPs (50 μg ml-1; pH 6.8) were incubated at 21° C. in amber HPLC vials. For sample preparation, 50 μl of an acetone solution (1 mg ml-1) was diluted to the final concentration with methanol (425 μl), water (500 μl) and 25 μl of 1-Indanol (1.0 mg ml-1 solution in acetone) as internal standard. […] The column was operated at 35° C. with a flow rate of 0.25 ml per min. Compounds eluted from the column were detected with a Diode array detector. Relative quantity of remaining (non-degraded) product was determined by comparison to the internal standard.

For `COC(=O)/C(=C/OC1C=C(C)C(=O)O1)c1ccc([N+](=O)[O-])cc1` (racemic) [MP1, (E)-methyl 3-(4-methyl-5-oxo-2,5-dihydrofuran-2-yloxy)-2-(4-nitrophenyl)acrylate], the “Hydrolysis rate by ShHTL7” value at ShHTL7 was “highest hydrolysis rates”. In addition, the “Relative activity in inducing S. hermonthica seed germination” value (“Relative activity” below) with S. hermonthica seeds is recorded as “the most potent compound”. Besides, in the data set with S. hermonthica seeds (in vivo), the “Striga germination activity (EC50) relative to GR24, times weaker” value is “around 17 times”. Also, in the data set with Arabidopsis seedlings, the “Increase of primary root length” value is “the most active compound; also recorded: more efficient than GR24” and the “Reduction of number of lateral roots / lateral root density” value was “activity higher than that of GR24; also recorded: more efficient than GR24”. Moreover, the “Stability in comparison to GR24” value in data set [1] is recorded as “slightly less stable than GR24”.

Consider `COC(=O)/C(=C/OC1C=C(C)C(=O)O1)c1ccccc1` (racemic) [MP3, (E)-methyl 3-(4-methyl-5-oxo-2,5-dihydrofuran-2-yloxy)-2-phenylacrylate], for which the “Hydrolysis rate by ShHTL7” value at ShHTL7 is “finally MP3; also recorded: higher hydrolysis activities with MP3 and MP7 than with GR24”. In addition, the “Relative activity” value with S. hermonthica seeds is on record as “less active than MP1”. Besides, the “Increase of primary root length” value with Arabidopsis seedlings is “weaker activity than GR24 and MP8”. In addition, the “Stability in comparison to GR24” value in data set [1] is given as “more stable than GR24”.

On to `COC(=O)/C(=C/OC1C=C(C)C(=O)O1)c1ccc(Cl)cc1` (stereo not drawn) [MP7], for which the “Hydrolysis rate by ShHTL7” value on ShHTL7 was “higher hydrolysis activities with MP3 and MP7 than with GR24”. The “Relative activity” value in the data set on S. hermonthica seeds is “highest germination activity”. Moreover, in the data set on Arabidopsis seedlings, the “Increase of primary root length” value was “more efficient than GR24” and the “Reduction of number of lateral roots / lateral root density” value is recorded as “slightly more active than GR24; also recorded: more efficient than GR24”. Besides, in data set [1], the “Stability in comparison to GR24” value was “more stable than GR24”.

Values taken from patent publication US11903386B2, “Strigolactone analogs and their usage in plant control” (King Abdullah University of Science and Technology, priority 2016, dated 2024).
